A value given as a limit tells only on which side of the number the result lay.

Data set [1] deals with recombinant NL4-3 virus (Renilla luciferase) in MT-2 cells. Briefly: HIV cell culture assay (antiviral activity, luciferase readout). Format: cell-based. The settings on record: Renilla, NL43. As for the experimental part: HIV cell culture assay—MT-2 cells, 293T cells and the proviral DNA clone of NL4-3 virus were obtained from the NIH AIDS Research and Reference Reagent Program. MT-2 cells were propagated in RPMI 1640 media supplemented with 10% heat inactivated fetal bovine serum (FBS), […]. The 293T cells were propagated in DMEM media supplemented with 10% heat inactivated FBS, […] penicillin G and […] streptomycin. A recombinant NL40.3 proviral clone, in which a section of the nef gene was replaced with the Renilla luciferase gene, was used to make the reference virus used in these studies. The recombinant virus was prepared through transfection of the recombinant NL4-3 proviral clone into 293T cells using Transit-293 Transfection Reagent from Minis Bio LLC (Madison, Wis.). Supernatent was harvested after 2-3 days and the amount of virus present was titered in MT-2 cells using luciferase enzyme activity as a marker by measuring luciferase enzyme activity. Luciferase was quantitated using the EnduRen Live Cell Substrate from Promega (Madison, Wis.). Antiviral activities of compounds toward the recombinant virus were quantified by measuring luciferase activity in MT-2 cells infected for 4-5 days with the recombinant virus in the presence of serial dilutions of the compound.
The 50% effective concentration (EC50) was calculated by using the exponential form of the median effect equation where (Fa)=1/[1+(ED50/drug conc.)m] (Johnson V A, Byington R T. Infectivity Assay. In Techniques in HIV Research. ed. Aldovini A, Walker B D. 71-76. New York: Stockton Press. 1990). The 50% inhibitory concentration (EC50) was calculated by using the exponential form of the median effect equation where percent inhibition=1/[1+(EC50/drug concentration)m], where m is a parameter that reflects the slope of the concentration-response curve.

Data set [2] is described as follows: Compound cytotoxicity, XTT-based colorimetric assay. Format: cell-based. The settings on record: human; uninfected MT2 cells, day 4, XTT. On the procedure:
Compound cytotoxicity and the corresponding CC50 values were determined using the same protocol as described in the antiviral assay except that uninfected cells were used. Cytotoxicity was assessed on day 4 in uninfected MT2 cells by using a XTT (2,3-bis[2-Methoxy-4-nitro-5-sulfophenyl]-2H-tetrazolium-5-carboxyanilide inner salt)-based colorimetric assay (Sigma-Aldrich, St Louis, Mo.).

With `CS(=O)(=O)Nc1nn(CC(F)(F)F)c2c(-n3c([C@H](Cc4cc(F)cc(F)c4)NC(=O)Cn4nc(C(F)F)c5c4C(F)(F)[C@@H]4C[C@H]54)nc4cc(-c5cccnn5)ccc4c3=O)ccc(Cl)c12` (atropisomer, axis not shown) [Example 107, N-[(1S)-1-{3-[4-chloro-3-methanesulfonamido-1-(2,2,2-trifluoroethyl)-1H-indazol-7-yl]-4-oxo-7-(pyridazin-3-yl)-3,4-dihydroquinazolin-2-yl}-2-(3,5-difluoropheny)ethyl]-2-[(2S,4R)-9-(difluoromethyl)-5,5-difluoro-7,8-diazatricyclo[4.3.0.0^2,^4]nona-1(6),8-dien-7-yl]acetamide], the EC50 in data set [1] turned out to be 0.048 nM. For the same compound, the 50% cytotoxic concentration (CC50) at 4 days in data set [2] was > 500 nM.
Regarding `CC(C)c1nccc(-c2ccc3c(=O)n(-c4ccc(Cl)c5c(NS(C)(=O)=O)nn(CC(F)(F)F)c45)c([C@H](Cc4cc(F)cc(F)c4)NC(=O)Cn4nc(C(F)F)c5c4C(F)(F)[C@@H]4C[C@H]54)nc3c2)n1` (atropisomer, axis not shown) [Example 108], the EC50 in data set [1] came to 0.12 nM. Besides, the CC50 at 4 days in data set [2] was > 500 nM.
Regarding `Cc1nc(C)c(C)c(-c2ccc3c(=O)n(-c4ccc(Cl)c5c(NS(C)(=O)=O)nn(CC(F)(F)F)c45)c([C@H](Cc4cc(F)cc(F)c4)NC(=O)Cn4nc(C(F)F)c5c4C(F)(F)[C@@H]4C[C@H]54)nc3c2)n1` (atropisomer, axis not shown) [Example 109, N-[(1S)-1-{3-[4-chloro-3-methanesulfonamido-1-(2,2,2-trifluoroethyl)-1H-indazol-7-yl]-4-oxo-7-(2,5,6-trimethylpyrimidin-4-yl)-3,4-dihydroquinazolin-2-yl}-2-(3,5-difluorophenyl)ethyl]-2-[(2S,4R)-9-(difluoromethyl)-5,5-difluoro-7,8-diazatricyclo[4.3.0.0^2,^4]nona-1(6),8-dien-7-yl]acetamide], in data set [1], the EC50 stood at 0.11 nM. The CC50 at 4 days in data set [2] is > 500 nM.
With `COc1ccc(-c2ccc3c(=O)n(-c4ccc(Cl)c5c(NS(C)(=O)=O)nn(CC(F)(F)F)c45)c([C@H](Cc4cc(F)cc(F)c4)NC(=O)Cn4nc(C(F)F)c5c4C(F)(F)[C@@H]4C[C@H]54)nc3c2)nn1` (atropisomer, axis not shown) [Example 110, N-[(1S)-1-{3-[4-chloro-3-methanesulfonamido-1-(2,2,2-trifluoroethyl)-1H-indazol-7-yl]-7-(6-methoxypyridazin-3-yl)-4-oxo-3,4-dihydroquinazolin-2-yl}-2-(3,5-difluorophenyl)ethyl]-2-[(2S,4R)-9-(difluoromethyl)-5,5-difluoro-7,8-diazatricyclo[4.3.0.0^2,^4]nona-1(6),8-dien-7-yl]acetamide], the EC50 in data set [1] was found to be 0.071 nM. The CC50 at 4 days in data set [2] is > 500 nM.
The corresponding values for `CCc1ccnc(-c2ccc3c(=O)n(-c4ccc(Cl)c5c(NS(C)(=O)=O)nn(CC(F)(F)F)c45)c([C@H](Cc4cc(F)cc(F)c4)NC(=O)Cn4nc(C(F)F)c5c4C(F)(F)[C@@H]4C[C@H]54)nc3c2)n1` (atropisomer, axis not shown) [Example 111, N-[(1S)-1-{3-[4-chloro-3-methanesulfonamido-1-(2,2,2-trifluoroethyl)-1H-indazol-7-yl]-7-(4-ethylpyrimidin-2-yl)-4-oxo-3,4-dihydroquinazolin-2-yl}-2-(3,5-difluorophenyl)ethyl]-2-[(2S,4R)-9-(difluoromethyl)-5,5-difluoro-7,8-diazatricyclo[4.3.0.0^2,^4]nona-1(6),8-dien-7-yl]acetamide] are 0.11 nM and > 500 nM.
The matching figures for `CS(=O)(=O)Nc1nn(CC(F)(F)F)c2c(-n3c([C@H](Cc4cc(F)cc(F)c4)NC(=O)Cn4nc(C(F)F)c5c4C(F)(F)[C@@H]4C[C@H]54)nc4cc(-c5ncccc5S(C)(=O)=O)ccc4c3=O)ccc(Cl)c12` (atropisomer, axis not shown) [Example 112]: 0.075 nM and > 500 nM.
In the case of `Cc1ccc(F)c(-c2ccc3c(=O)n(-c4ccc(Cl)c5c(NS(C)(=O)=O)nn(CC(F)(F)F)c45)c([C@H](Cc4cc(F)cc(F)c4)NC(=O)Cn4nc(C(F)F)c5c4C(F)(F)[C@@H]4C[C@H]54)nc3c2)n1` (atropisomer, axis not shown) [Example 113], in data set [1], the EC50 amounted to 0.1 nM. Also, in data set [2], the CC50 at 4 days is > 500 nM.
Consider `Cc1ncc(-c2ccc3c(=O)n(-c4ccc(Cl)c5c(NS(C)(=O)=O)nn(CC(F)(F)F)c45)c([C@H](Cc4cc(F)cc(F)c4)NC(=O)Cn4nc(C(F)F)c5c4C(F)(F)[C@@H]4C[C@H]54)nc3c2)s1` (atropisomer, axis not shown) [Example 114], for which the EC50 in data set [1] was 0.15 nM. Also, the CC50 at 4 days in data set [2] was > 500 nM.
On to `COc1cnc(-c2ccc3c(=O)n(-c4ccc(Cl)c5c(NS(C)(=O)=O)nn(CC(F)(F)F)c45)c([C@H](Cc4cc(F)cc(F)c4)NC(=O)Cn4nc(C(F)F)c5c4C(F)(F)[C@@H]4C[C@H]54)nc3c2)nc1` (atropisomer, axis not shown) [Example 115, N-[(1S)-1-{3-[4-chloro-3-methanesulfonamido-1-(2,2,2-trifluoroethyl)-1H-indazol-7-yl]-7-(5-methoxypyrimidin-2-yl)-4-oxo-3,4-dihydroquinazolin-2-yl}-2-(3,5-difluorophenyl)ethyl]-2-[(2S,4R)-9-(difluoromethyl)-5,5-difluoro-7,8-diazatricyclo[4.3.0.0^2,^4]nona-1(6),8-dien-7-yl]acetamide], for which, in data set [1], the EC50 was found to be 0.098 nM. Further, the CC50 at 4 days in data set [2] was > 500 nM.
The corresponding values for `COc1ncc(-c2ccc3c(=O)n(-c4ccc(Cl)c5c(NS(C)(=O)=O)nn(CC(F)(F)F)c45)c([C@H](Cc4cc(F)cc(F)c4)NC(=O)Cn4nc(C(F)F)c5c4C(F)(F)[C@@H]4C[C@H]54)nc3c2)cn1` (atropisomer, axis not shown) [Example 116, N-[(1S)-1-{3-[4-chloro-3-methanesulfonamido-1-(2,2,2-trifluoroethyl)-1H-indazol-7-yl]-7-(2-methoxypyrimidin-5-yl)-4-oxo-3,4-dihydroquinazolin-2-yl}-2-(3,5-difluorophenyl)ethyl]-2-[(2S,4R)-9-(difluoromethyl)-5,5-difluoro-7,8-diazatricyclo[4.3.0.0^2,^4]nona-1(6),8-dien-7-yl]acetamide] are 0.072 nM and > 500 nM.
The corresponding values for `Cn1nc(NS(C)(=O)=O)c2c(Cl)ccc(-n3c([C@H](Cc4cc(F)cc(F)c4)NC(=O)Cn4nc(C(F)F)c5c4C(F)(F)[C@@H]4C[C@H]54)nc4cc(-c5cccc(C(F)F)n5)ccc4c3=O)c21` (atropisomer, axis not shown) [Example 117] are 0.069 nM and > 500 nM.
The matching figures for `Cc1cc(-c2ccc3c(=O)n(-c4ccc(Cl)c5c(NS(C)(=O)=O)nn(C)c45)c([C@H](Cc4cc(F)cc(F)c4)NC(=O)Cn4nc(C(F)F)c5c4C(F)(F)[C@@H]4C[C@H]54)nc3c2)nc(CO)n1` (atropisomer, axis not shown) [Example 118, N-[(1S)-1-[3-(4-chloro-3-methanesulfonamido-1-methyl-1H-indazol-7-yl)-7-[2-(hydroxymethyl)-6-methylpyrimidin-4-yl]-4-oxo-3,4-dihydroquinazolin-2-yl]-2-(3,5-difluorophenyl)ethyl]-2-[(2S,4R)-9-(difluoromethyl)-5,5-difluoro-7,8-diazatricyclo[4.3.0.0^2,^4]nona-1(6),8-dien-7-y]acetamide]: 0.048 nM and > 500 nM.
With `Cc1nc(C)c(F)c(-c2ccc3c(=O)n(-c4ccc(Cl)c5c(NS(C)(=O)=O)nn(C)c45)c([C@H](Cc4cc(F)cc(F)c4)NC(=O)Cn4nc(C(F)F)c5c4C(F)(F)[C@@H]4C[C@H]54)nc3c2)n1` (atropisomer, axis not shown) [Example 119, N-[(1S)-1-[3-(4-chloro-3-methanesulfonamido-1-methyl-1H-indazol-7-yl)-7-(5-fluoro-2,6-dimethylpyrimidin-4-yl)-4-oxo-3,4-dihydroquinazolin-2-yl]-2-(3,5-difluorophenyl)ethyl]-2-[(2S,4R)-9-(difluoromethyl)-5,5-difluoro-7,8-diazatricyclo[4.3.0.0^2,^4]nona-1(6),8-dien-7-yl]acetamide], in data set [1], the EC50 amounted to 0.087 nM. Further, the CC50 at 4 days in data set [2] is > 500 nM.
As for `Cn1nc(NS(C)(=O)=O)c2c(Cl)ccc(-n3c([C@H](Cc4cc(F)cc(F)c4)NC(=O)Cn4nc(C(F)F)c5c4C(F)(F)[C@@H]4C[C@H]54)nc4cc(-c5cccc(C(F)F)c5)ccc4c3=O)c21` (atropisomer, axis not shown) [Example 120], in data set [1], the EC50 worked out at 0.38 nM. Also, the CC50 at 4 days in data set [2] is > 500 nM.

These data come from patent US11541055B2, “Inhibitors of human immunodeficiency virus replication” (ViiV Healthcare UK (No. 5) LIMITED, priority 2018, dated 2023).
